Consider one compound from patent publication US6340758B1, “Conformationally semi-constrained quinoxaline 2,3-diones as neuroprotective agents” (Warner-Lambert Company, priority 1997, dated 2002).

As to `Cc1c([N+](=O)[O-])cc2[nH]c(=O)c(=O)[nH]c2c1-c1nnc(N)o1` [Example 1, 5-(5-Amino-[1,3,4]oxadiazol-2-yl)-6-methyl-7-nitro-1,4-dihydro-quinoxaline-2,3-dione], the melting point fell in the range of 205 to 206 °C.
